Each molecule was assayed against T1, Rat Androgen Receptor (Rattus norvegicus, UniProt P15207) (assay: Rat Androgen Receptor Binding (polarscreen AR competitor assay, fluorescence polarization)). Conditions: displacement of Fluormone AL Green, 4 hours at RT, read-out: AR rat-fluorimetric.
T1 construct: purchased Life Technologies A15880
T1 sequence (P15207 646-902 limits assumed): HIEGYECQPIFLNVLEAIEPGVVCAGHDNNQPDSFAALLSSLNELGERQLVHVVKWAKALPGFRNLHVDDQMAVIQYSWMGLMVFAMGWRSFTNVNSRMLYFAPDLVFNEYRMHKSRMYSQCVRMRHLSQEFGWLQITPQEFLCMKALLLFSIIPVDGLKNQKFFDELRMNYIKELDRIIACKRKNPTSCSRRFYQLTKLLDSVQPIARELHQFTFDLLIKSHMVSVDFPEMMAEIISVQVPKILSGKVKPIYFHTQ
Outline: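 Fluorescence-polarization competition of Fluormone AL Green binding to rat androgen receptor; compounds screened in duplicate at 1 and 10 μM, 4 h at RT, read at λexc 485/λem 535 nm. IC50 from 1:10 dilution series, 10 μM to 0.1 nM, in 1× buffer.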
For `COC(=O)C1=C(C2CC2)NC(C)=C(C(C)=O)C1c1csc2ncccc12` (stereo not shown) [Example J23, Methyl 5-acetyl-2-cyclopropyl-6-methyl-4-(thieno[2,3-b]pyridin-3-yl)-1,4-dihydropyridine-3-carboxylate], the IC50 was less than 100 nM. `CC(=O)C1=C(C)NC(C)=C(C(=O)OCC2CCOCC2)C1c1csc2ccccc12` (stereo not shown) [Example C2, (Tetrahydro-2H-pyran-4-yl)methyl 5-acetyl-4-(benzo[b]thiophen-3-yl)-2,6-dimethyl-1,4-dihydropyridine-3-carboxylate] was tested, and the IC50 was 100 to 1000 nM. Work on `CC(=O)C1=C(C)NC(C)=C(C(=O)OCC2CC2)C1c1csc2ncccc12` (stereo not shown) [Example C24, Cyclopropylmethyl 5-acetyl-2,6-dimethyl-4-(thieno[2,3-b]pyridin-3-yl)-1,4-dihydropyridine-3-carboxylate] yielded an IC50 of less than 100 nM. With `CC(=O)C1=C(C)NC(C)=C(C(=O)OCc2ccccc2)C1c1csc2ccccc12` (stereo not shown) [Example B6, Benzyl 5-acetyl-4-(benzo[b]thiophen-3-yl)-2,6-dimethyl-1,4-dihydro-pyridine-3-carboxylate] the IC50 was 100 to 1000 nM.

Reference: US11453660B2, “Androgen receptor and glucocorticoid receptor modulators” (ONCOSTELLAE, S.L., priority 2017, dated 2022)
